What was measured:
[1] = molar enthalpy of vaporization or sublimation; settings: 381.12 K; Liquid; Static calorimetry
[2] = Molar enthalpy of transition or fusion; settings: Crystal; DSC
[3] = molar heat capacity at constant pressure; settings: 101.33 kPa, Small sample (50 mg) DSC
[4] = Crystal; DTA

CCCCCCC(=O)c1ccc(O)cc1 [1-(4-hydroxyphenyl)-1-heptanone]
Settings | Molar enthalpy of transition or fusion [kcal/mol] | Normal melting temperature [°C] | molar enthalpy [kcal/mol]
[1] | – | – | 24.2
[2] | 7.5 | – | –
[4] | – | 92 | –

[3]
Settings | molar heat capacity at constant pressure [J/K/mol]
288.67 K, Crystal | 291
289.17 K, Crystal | 292.2
289.67 K, Crystal | 289.9
290.17 K, Crystal | 290.9
290.68 K, Crystal | 292.7
291.18 K, Crystal | 295
291.68 K, Crystal | 296.8
292.18 K, Crystal | 295.6
292.69 K, Crystal | 295.3
293.19 K, Crystal | 296.8
293.69 K, Crystal | 295
294.19 K, Crystal | 297.4
294.69 K, Crystal | 297.4
295.19 K, Crystal | 296.8
295.69 K, Crystal | 301
296.19 K, Crystal | 302.3
296.7 K, Crystal | 300.1
297.2 K, Crystal | 300.6
297.7 K, Crystal | 300.7
298.2 K, Crystal | 300.2
298.7 K, Crystal | 303
299.2 K, Crystal | 302.5
299.7 K, Crystal | 304.8
300.2 K, Crystal | 307.5
300.7 K, Crystal | 306.2
301.2 K, Crystal | 305.9
301.7 K, Crystal | 306.8
302.2 K, Crystal | 306.5
302.7 K, Crystal | 307.3
303.2 K, Crystal | 308.7
303.7 K, Crystal | 307.9
304.2 K, Crystal | 309.2
304.7 K, Crystal | 311.7
305.2 K, Crystal | 310
305.7 K, Crystal | 309.6
306.2 K, Crystal | 311.9
306.7 K, Crystal | 312.9
307.2 K, Crystal | 311.4
307.7 K, Crystal | 311.2
308.2 K, Crystal | 310.6
308.7 K, Crystal | 313.4
309.2 K, Crystal | 314
309.7 K, Crystal | 314.4
310.2 K, Crystal | 315.8
310.7 K, Crystal | 314.9
311.2 K, Crystal | 316.7
311.7 K, Crystal | 318
312.2 K, Crystal | 317.3
312.7 K, Crystal | 318.1
313.2 K, Crystal | 319.2
313.7 K, Crystal | 320.9
314.2 K, Crystal | 320.5
314.7 K, Crystal | 319.8
315.2 K, Crystal | 319.7
315.7 K, Crystal | 323.3
316.2 K, Crystal | 322.8
316.7 K, Crystal | 323.2
317.2 K, Crystal | 324
317.7 K, Crystal | 323.8
318.2 K, Crystal | 325.7
318.7 K, Crystal | 324.1
319.2 K, Crystal | 327.1
319.7 K, Crystal | 327.1
320.2 K, Crystal | 324.7
320.7 K, Crystal | 327.1
321.2 K, Crystal | 328.9
321.7 K, Crystal | 328.9
322.2 K, Crystal | 330.3
322.7 K, Crystal | 329.6
323.2 K, Crystal | 331.2
323.7 K, Crystal | 332
324.2 K, Crystal | 330.5
324.7 K, Crystal | 331.9
325.2 K, Crystal | 333.5
325.7 K, Crystal | 333.6
326.2 K, Crystal | 334.4
326.7 K, Crystal | 335
327.2 K, Crystal | 335.2
327.7 K, Crystal | 334.1
328.2 K, Crystal | 335
328.7 K, Crystal | 337.4
329.2 K, Crystal | 336.3
329.7 K, Crystal | 338.1
330.2 K, Crystal | 338.7
330.7 K, Crystal | 337.8
331.2 K, Crystal | 338.5
331.7 K, Crystal | 339.5
332.2 K, Crystal | 340.3
332.7 K, Crystal | 342.3
333.2 K, Crystal | 341.3
333.7 K, Crystal | 342.1
334.2 K, Crystal | 343.3
334.7 K, Crystal | 343.6
335.2 K, Crystal | 343.9
335.7 K, Crystal | 346.5
336.2 K, Crystal | 344.9
336.7 K, Crystal | 346.6
337.2 K, Crystal | 346.4
337.7 K, Crystal | 346.9
338.2 K, Crystal | 349.4
338.7 K, Crystal | 347.8
339.19 K, Crystal | 348.2
339.69 K, Crystal | 348.7
340.2 K, Crystal | 350.4
340.7 K, Crystal | 352.5
341.2 K, Crystal | 350.7
341.7 K, Crystal | 350.7
342.2 K, Crystal | 351.4
342.7 K, Crystal | 351.7
343.19 K, Crystal | 353.4
343.69 K, Crystal | 353.1
344.19 K, Crystal | 353.4
344.69 K, Crystal | 356.8
345.19 K, Crystal | 357
345.69 K, Crystal | 355.2
346.19 K, Crystal | 357.3
346.69 K, Crystal | 357.3
347.19 K, Crystal | 358.3
347.69 K, Crystal | 359.2
348.19 K, Crystal | 360.3
348.69 K, Crystal | 361.6
349.19 K, Crystal | 362.4
349.69 K, Crystal | 360.9
350.19 K, Crystal | 361.8
350.69 K, Crystal | 363.3
351.19 K, Crystal | 364.3
351.69 K, Crystal | 363.9
352.19 K, Crystal | 363.4
352.69 K, Crystal | 366
353.19 K, Crystal | 365.4
353.69 K, Crystal | 368.2
354.19 K, Crystal | 369.3
354.69 K, Crystal | 370
355.19 K, Crystal | 372.4
355.69 K, Crystal | 375.2
356.19 K, Crystal | 373.6
356.69 K, Crystal | 374.5
357.19 K, Crystal | 374.8
357.69 K, Crystal | 380
358.19 K, Crystal | 380.1
358.69 K, Crystal | 381.4
359.19 K, Crystal | 382.3
359.69 K, Crystal | 387
360.19 K, Crystal | 391.3
360.69 K, Crystal | 393.9
361.19 K, Crystal | 397.9
361.69 K, Crystal | 403.5
362.19 K, Crystal | 413.1
362.69 K, Crystal | 424.4
363.19 K, Crystal | 446.7
370.2 K, Liquid | 458.6
370.7 K, Liquid | 460.1
371.19 K, Liquid | 461.4
371.69 K, Liquid | 461.5
372.19 K, Liquid | 463.4
372.69 K, Liquid | 462.1
373.19 K, Liquid | 464.1
373.69 K, Liquid | 465.7
374.19 K, Liquid | 465.5
374.69 K, Liquid | 467.4
375.19 K, Liquid | 464.3
375.69 K, Liquid | 466.6
376.19 K, Liquid | 466.5
376.69 K, Liquid | 466.6
377.19 K, Liquid | 467.5
377.69 K, Liquid | 468.1
378.19 K, Liquid | 470.5
378.69 K, Liquid | 469.8
379.19 K, Liquid | 468.2
379.69 K, Liquid | 471.2
380.19 K, Liquid | 470
380.69 K, Liquid | 474
381.19 K, Liquid | 473.3
381.69 K, Liquid | 474
382.19 K, Liquid | 470.5
382.69 K, Liquid | 473.3
383.19 K, Liquid | 472.6
383.69 K, Liquid | 473.7
384.19 K, Liquid | 474.9
384.69 K, Liquid | 477.4
385.19 K, Liquid | 480
385.69 K, Liquid | 481.1
386.19 K, Liquid | 482.1
386.69 K, Liquid | 479
